The source of these data is ChEMBL document CHEMBL1201862, “PubChem BioAssay data set” (2004).

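Compound exposure: 48 hours, 5 concentrations, 96-well plates. GI50 = concentration required for 50% inhibition of growth.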 The source made the active and inactive calls. No stated cut-off is given here; in the data, active = GI50 up to about 1.1 µM and inactive = higher. Where a SMILES comes first, the peptide text is derived from it.

Holding throughout (experiment): growth of human tumour cells (NCI), 48 h
The subject of assay [1] is UACC-257.
Assay [2] has as its system OVCAR-4.
For assay [3], the system named is RXF 393.
For assay [4], the system named is A498.
Assay [5] relates to UACC-62.
The subject of assay [6] is SK-MEL-2.
Assay [7] relates to DMS-114.
Assay [8] concerns U-251.
Assay [9] has as its system SF-268.
Assay [10] concerns OVCAR-8.
For assay [11], the system named is KM12.
The subject of assay [12] is NCI-H460.
In assay [13] the test system is HL-60.
Assay [14] deals with IGROV-1.
For assay [15], the system named is OVCAR-3.
The test system of assay [16] is TK-10.
For assay [17], the system named is 786-0.
The subject of assay [18] is EKVX.

Regarding `CCS(=O)(=O)Nc1ccc(Nc2c3ccccc3nc3ccccc23)c(OC)c1`, the GI50 in assay [1] is 2.6 µM (inactive); in assay [2], 4.19 µM (inactive); in assay [3], 1.99 µM (inactive); in [4] it was 0.24 µM (active); in assay [5] it was 0.416 µM (active); in assay [6], 5.37 µM (inactive). For the same compound, the GI50 was 0.216 µM (active) in [7]; 0.158 µM (active) in [8]; 0.421 µM (active) in assay [9]; 0.885 µM (active) in assay [10]; 1.75 µM (inactive) in assay [11]; < 0.0114 µM (active) in assay [12]. The results for the GI50 in [13], in assay [14] and in assay [15] were 0.0168 µM (active), 7.94 µM (inactive) and 2.03 µM (inactive), respectively.
Consider `COc1cccc(/C=C2\CCC(C)(CN(C)C)C2=O)c1` (stereo not drawn), for which the GI50 was > 100 µM (inactive) in [1]; > 100 µM (inactive) in [16]; 98.4 µM (inactive) in [2]; > 100 µM (inactive) in assay [3]; > 100 µM (inactive) in [17]; > 100 µM (inactive) in assay [4]. The GI50 in assay [5] was > 100 µM (inactive); in assay [6] it was > 100 µM (inactive); in assay [18], 46.5 µM (inactive); in [7], 69.3 µM (inactive); in assay [8], > 100 µM (inactive); in assay [9], > 100 µM (inactive). In addition, the GI50 in assay [10] is > 100 µM (inactive); in assay [11] it was 92.7 µM (inactive); in assay [12], > 100 µM (inactive); in assay [14], > 100 µM (inactive); in [15] it was > 100 µM (inactive).
Regarding `CN(C)CC1CCC/C1=N/OC(=O)c1ccccc1` (stereo not drawn), the GI50 in [1], in assay [16], in assay [2], in assay [3], in assay [17] and in [4] was > 100 µM (inactive) each time. Moreover, the GI50 in assay [5], in assay [6], in [7], in [8], in assay [9] and in assay [10] was > 100 µM (inactive) each time. The GI50 in assay [12], in [14] and in assay [15] was > 100 µM (inactive) throughout.
As for `CN(C)c1cccc(OC(=O)NCCCl)c1`, the GI50 in assay [1], in assay [2], in assay [4], in [5], in assay [6] and in assay [18] was > 100 µM (inactive) in each case. The GI50 in [7], in assay [8], in assay [9], in assay [10], in assay [11] and in [12] was > 100 µM (inactive) each time. Besides, the GI50 in assay [13], in assay [14] and in assay [15] was > 100 µM (inactive) in each case.
As for `Cc1cc(/N=N/c2ccc(/N=N/c3c(O)c(S(=O)(=O)O)cc4cc(S(=O)(=O)O)ccc34)cc2C)ccc1/N=N/c1ccc2cc(S(=O)(=O)O)cc(S(=O)(=O)O)c2c1`, the GI50 in [1], in [2], in [3], in [4], in [5] and in assay [6] was > 100 µM (inactive) each time. For the same compound, the GI50 in assay [18] was > 100 µM (inactive); in assay [7], > 100 µM (inactive); in assay [8], > 100 µM (inactive); in [9] it was > 100 µM (inactive); in assay [10] it was > 31.6 µM (inactive); in assay [11] it was > 72.4 µM (inactive). Moreover, the GI50 in assay [12], in assay [13], in assay [14] and in [15] was > 100 µM (inactive) each time.
On to `CCOc1ccc(OCC)c([P+](c2ccccc2)(c2ccccc2)c2ccccc2)c1`, for which the GI50 was 0.215 µM (active) in [1]; 0.495 µM (active) in assay [16]; 1.19 µM (inactive) in assay [2]; 0.968 µM (active) in assay [3]; 0.879 µM (active) in [17]; 0.785 µM (active) in assay [4]. Further, the GI50 in [5] is 0.792 µM (active); in [18], 1.1 µM (active); in assay [7], 0.245 µM (active); in assay [8], 0.204 µM (active); in assay [9] it was 0.617 µM (active); in assay [10], 0.358 µM (active). In addition, the GI50 in assay [11] was 0.178 µM (active); in [12], 0.383 µM (active); in assay [13], 0.114 µM (active); in assay [14], 0.356 µM (active); in assay [15], 0.162 µM (active).
Take `CCOC(=O)C(Sc1ccccc1)c1c(OC)cc(=O)oc1/C=[N+](/[O-])c1ccc(N(C)C)cc1` (stereo not drawn): the GI50 was 14.6 µM (inactive) in [1]; 35 µM (inactive) in [16]; 26.7 µM (inactive) in assay [2]; 16.2 µM (inactive) in assay [3]; 19.7 µM (inactive) in assay [17]; 52.7 µM (inactive) in assay [4]. For the same compound, the GI50 in assay [5] was 22.6 µM (inactive); in assay [6], 24.9 µM (inactive); in assay [18] it was 33.3 µM (inactive); in assay [7] it was 19.4 µM (inactive); in assay [8], 24.7 µM (inactive); in assay [9], 31.5 µM (inactive). The GI50 was 18.4 µM (inactive) in assay [10]; 21.7 µM (inactive) in assay [11]; 27.9 µM (inactive) in assay [12]; 42.4 µM (inactive) in assay [14]; 13.2 µM (inactive) in assay [15].
Turning to `Cc1nc2c(=O)n(C)c(=O)nc-2n(-c2ccc(Cl)cc2)c1C`, the GI50 is > 100 µM (inactive) in [1]; > 100 µM (inactive) in assay [16]; 31 µM (inactive) in assay [2]; > 100 µM (inactive) in assay [17]; > 100 µM (inactive) in [4]; 43.9 µM (inactive) in [5]. The GI50 in assay [6], in [18], in assay [7], in assay [8], in assay [9] and in [10] was > 100 µM (inactive) each time. Besides, the GI50 in assay [11] was > 100 µM (inactive); in assay [12], > 100 µM (inactive); in [13], 45.3 µM (inactive); in [14], > 100 µM (inactive); in assay [15], > 100 µM (inactive).
For the compound `O=C1C(=O)N(c2ccc(Cl)c(Cl)c2)C(=O)C(=O)C1c1nc2ccccc2s1`, the GI50 in assay [1], in assay [16], in assay [2], in [3], in assay [17] and in [4] was > 100 µM (inactive) in each case. The GI50 in assay [5], in assay [6], in assay [18], in [7], in [8] and in [9] was > 100 µM (inactive) each time. Moreover, the GI50 in assay [10] was 56.5 µM (inactive); in [14], > 100 µM (inactive); in assay [15], > 100 µM (inactive).
For `C[Si](C)(C)[C@@]1([Se]c2ccccc2)CC[C@@H]1C(=O)c1ccccc1`, the GI50 is 40.6 µM (inactive) in assay [1]; > 100 µM (inactive) in [16]; 67.9 µM (inactive) in assay [2]; 19 µM (inactive) in assay [3]; > 100 µM (inactive) in assay [17]; > 100 µM (inactive) in assay [4]. In addition, the GI50 is 71.4 µM (inactive) in [5]; 23.7 µM (inactive) in [6]; 49.3 µM (inactive) in assay [18]; 38.5 µM (inactive) in assay [7]; 83.8 µM (inactive) in assay [8]; 28.8 µM (inactive) in assay [9]. Moreover, the GI50 was 50.5 µM (inactive) in [10]; 44.9 µM (inactive) in [11]; 98.9 µM (inactive) in assay [12]; > 100 µM (inactive) in assay [14]; 84.1 µM (inactive) in [15].
Take `COc1cccc(-n2c3nc(=O)n(C)c(=O)c-3nc3ccccc32)c1`: the GI50 is 14.9 µM (inactive) in [1]; 45.6 µM (inactive) in [16]; 12.3 µM (inactive) in assay [2]; 24.3 µM (inactive) in assay [17]; 34.5 µM (inactive) in [4]; 4.06 µM (inactive) in [5]. Also, the GI50 in [6] was 19.6 µM (inactive); in [18], 29.8 µM (inactive); in [7] it was 5.11 µM (inactive); in assay [8], 14.4 µM (inactive); in assay [9] it was 16.7 µM (inactive); in assay [10] it was 14.6 µM (inactive). Further, the GI50 was 27.1 µM (inactive) in [11]; 5.46 µM (inactive) in assay [12]; 6.01 µM (inactive) in assay [13]; 18.7 µM (inactive) in assay [14]; 2.69 µM (inactive) in assay [15].
As to `CC1NC(=O)CNC(=O)CNC(=O)C(Cc2ccc(O)cc2)NC(=O)C(C(C)C)NC(=O)C(C)NC1=O` (stereo not drawn) (cyclo(GGAAVY); configuration not given here), the GI50 was > 100 µM (inactive) in assay [1]; 10.7 µM (inactive) in assay [2]; > 100 µM (inactive) in assay [4]; > 100 µM (inactive) in assay [5]; > 100 µM (inactive) in assay [6]; > 100 µM (inactive) in assay [18]. Besides, the GI50 in assay [7], in [8], in assay [9], in assay [10], in [11] and in assay [12] was > 100 µM (inactive) in each case. Moreover, the GI50 in assay [13], in assay [14] and in assay [15] was > 100 µM (inactive) in each case.
